In the OligoGym collection:
After the bases stand the sugars from the 5' end (letter, count) and the backbone: PS all phosphorothioate, else s phosphorothioate and o phosphodiester by linkage. Methylation of C is not given here. e = 2'-O-(2-methoxyethyl) (MOE); k = constrained ethyl (cEt); d = 2'-deoxy (DNA); m = 2'-O-methyl

Target: HSD17B13
Settings: ASO, HepaRG

## ACGACTTCATCTGTCT (sugars k3 d10 k3, PS)
1 µM
  target mRNA inhibition: 8%

## ATTGATACACCAATGC (sugars k3 d10 k3, PS)
1 µM
  target mRNA inhibition: 66%

## TTGATTCGAAACTATT (sugars k3 d10 k3, PS)
1 µM
  target mRNA inhibition: 55%

## AATATAGCCCTTTCCC (sugars k3 d10 k3, PS)
1 µM
  target mRNA inhibition: 44%

## TAGAGTCGGTCACCTT (sugars k3 d1 m1 d8 k3, PS)
1 µM
  target mRNA inhibition: 55%

## ACCAAGAGGGTTTTTA (sugars k3 d10 k3, PS)
1 µM
  target mRNA inhibition: 7%

## TGCTGCTAGTGCCAAA (sugars k3 d10 k3, PS)
1 µM
  target mRNA inhibition: 58%

## GTAACGGTGATCAAAT (sugars k3 d9 k3 e1, PS)
1 µM
  target mRNA inhibition: 32%

## AAAATAGAGTCGGTCA (sugars k3 d10 k3, PS)
0.02 µM
  target mRNA inhibition: 28%
0.078 µM
  target mRNA inhibition: 27%
0.313 µM
  target mRNA inhibition: 51%
1 µM
  target mRNA inhibition: 71%
1.25 µM
  target mRNA inhibition: 69%
5 µM
  target mRNA inhibition: 91%

## GACTTTCATAGGGAGA (sugars k3 d10 k3, PS)
1 µM
  target mRNA inhibition: 72%

## AGGTATGTCATACTTC (sugars k3 d10 k3, PS)
1 µM
  target mRNA inhibition: 5%

## GGCTATAGTAATTGCT (sugars k3 d10 k3, PS)
1 µM
  target mRNA inhibition: 13%

## ATCAATGCCTTAGCCC (sugars k3 d10 k3, PS)
1 µM
  target mRNA inhibition: 38%

## GCATACTTATTAAGTA (sugars k3 d10 k3, PS)
1 µM
  target mRNA inhibition: 32%

## TAGTGCCAAACCAATG (sugars kkdddddddddkekek, PS)
0.02 µM
  target mRNA inhibition: 11%
0.078 µM
  target mRNA inhibition: 18%
0.313 µM
  target mRNA inhibition: 27%
1 µM
  target mRNA inhibition: 66%
1.25 µM
  target mRNA inhibition: 53%
5 µM
  target mRNA inhibition: 57%

## GCCTAGTTTTCGGCAC (sugars k3 d10 k3, PS)
1 µM
  target mRNA inhibition: 12%

## CGTTTGACTGCTGCTA (sugars kkdddddddddkekek, PS)
1 µM
  target mRNA inhibition: 48%

## GACTTGCCTCATTTAG (sugars k3 d10 k3, PS)
1 µM
  target mRNA inhibition: 69%

## TGCTACTTGAACAGTC (sugars kkdddddddddkekek, PS)
1 µM
  target mRNA inhibition: 64%

## GTTAAGCAGATGGCTT (sugars k3 d10 k3, PS)
1 µM
  target mRNA inhibition: 41%

## TACCAAACTTGCCCAT (sugars k3 d10 k3, PS)
1 µM
  target mRNA inhibition: 33%

## AAATATGTCCAGGTTG (sugars k3 d10 k3, PS)
1 µM
  target mRNA inhibition: 68%

## GTAAACTAAAGTACTT (sugars k3 d10 k3, PS)
1 µM
  target mRNA inhibition: 0%

## ATAGTTCAAATTGGAT (sugars k3 d10 k3, PS)
1 µM
  target mRNA inhibition: 48%

## ACATACCACTCTTCTC (sugars k3 d10 k3, PS)
1 µM
  target mRNA inhibition: 35%

## CTTTGCAGCATTGATT (sugars k3 d1 m1 d8 k3, PS)
1 µM
  target mRNA inhibition: 19%

## GACAATGTGCAGCTCT (sugars k3 d10 k3, PS)
1 µM
  target mRNA inhibition: 67%

## ACACTAATGAATCATG (sugars k3 d10 k3, PS)
1 µM
  target mRNA inhibition: 7%

## CAGAATATATACTAGG (sugars k3 d10 k3, PS)
1 µM
  target mRNA inhibition: 55%

## CCCAACCAAACTTCCA (sugars k3 d10 k3, PS)
1 µM
  target mRNA inhibition: 62%

## AGTGCCAAACCAATGT (sugars k3 d1 m1 d8 k3, PS)
1 µM
  target mRNA inhibition: 24%

## CTGTTGCAAGTTCTTC (sugars k3 d10 k3, PS)
0.02 µM
  target mRNA inhibition: 0%
0.078 µM
  target mRNA inhibition: 0%
0.313 µM
  target mRNA inhibition: 49%
1 µM
  target mRNA inhibition: 85%
1.25 µM
  target mRNA inhibition: 73%
5 µM
  target mRNA inhibition: 88%

## TGCAGCATTGATTCGA (sugars k3 d10 k3, PS)
1 µM
  target mRNA inhibition: 47%

## GGTGAACCCAGTATTC (sugars k3 d10 k3, PS)
1 µM
  target mRNA inhibition: 7%

## TTGGAATGCTACTTGA (sugars kkdddddddddkekek, PS)
1 µM
  target mRNA inhibition: 54%

## ACGAAGCCTGAATGCC (sugars k3 d10 k3, PS)
1 µM
  target mRNA inhibition: 52%

## AGGCATTAGATGGTAA (sugars k3 d10 k3, PS)
1 µM
  target mRNA inhibition: 51%

## GTTAGCTAAGGGAGAG (sugars k3 d10 k3, PS)
1 µM
  target mRNA inhibition: 18%

## TTTGACTGCTGCTAGT (sugars k3 d10 k3, PS)
1 µM
  target mRNA inhibition: 21%

## GATGUAGTGGGAGTCG (sugars k3 d1 m1 d8 k3, PS)
1 µM
  target mRNA inhibition: 35%

## GATACATACCACTCTT (sugars k3 d10 k3, PS)
1 µM
  target mRNA inhibition: 52%

## AAGTATTCCATCTATC (sugars k3 d10 k3, PS)
1 µM
  target mRNA inhibition: 52%

## GCCTTGAATAGCAAGC (sugars k3 d9 k3 e1, PS)
1 µM
  target mRNA inhibition: 38%

## TTCATTCGAATTTCTT (sugars k3 d10 k3, PS)
0.02 µM
  target mRNA inhibition: 12%
0.078 µM
  target mRNA inhibition: 10%
0.313 µM
  target mRNA inhibition: 43%
1 µM
  target mRNA inhibition: 71%
1.25 µM
  target mRNA inhibition: 78%
5 µM
  target mRNA inhibition: 89%

## AGTAAATTGAATAGCC (sugars k3 d10 k3, PS)
1 µM
  target mRNA inhibition: 39%

## TTCCTCCACACCGCGC (sugars k3 d10 k3, PS)
1 µM
  target mRNA inhibition: 47%
